biological target: T1, human Werner helicase (WRN-BV08, Uniprot Q14191, amino acids 517-1235 with L1074F point mutation) (Homo sapiens, UniProt Q14191, L1074F); assay: WRN (BV08) ADP-Glo Assay; type: biochemical; conditions: 0.15 nM WRN, 5 μM ATP, 0.1 nM DNA duplex, 15 min preincubation, 60 min at 25° C., pH 7.5, 1% DMSO; read-out: ADP-Glo_hWRN_IC50
T1 construct: Uniprot Q14191, amino acids 517-1235 with L1074F point mutation; TEV-cleavable 8×His (C, cleaved yes); made in house; host or cells: Sf9 insect cells (baculovirus)
T1 sequence (Q14191 with tags, fused parts or gaps L1074F limits assumed): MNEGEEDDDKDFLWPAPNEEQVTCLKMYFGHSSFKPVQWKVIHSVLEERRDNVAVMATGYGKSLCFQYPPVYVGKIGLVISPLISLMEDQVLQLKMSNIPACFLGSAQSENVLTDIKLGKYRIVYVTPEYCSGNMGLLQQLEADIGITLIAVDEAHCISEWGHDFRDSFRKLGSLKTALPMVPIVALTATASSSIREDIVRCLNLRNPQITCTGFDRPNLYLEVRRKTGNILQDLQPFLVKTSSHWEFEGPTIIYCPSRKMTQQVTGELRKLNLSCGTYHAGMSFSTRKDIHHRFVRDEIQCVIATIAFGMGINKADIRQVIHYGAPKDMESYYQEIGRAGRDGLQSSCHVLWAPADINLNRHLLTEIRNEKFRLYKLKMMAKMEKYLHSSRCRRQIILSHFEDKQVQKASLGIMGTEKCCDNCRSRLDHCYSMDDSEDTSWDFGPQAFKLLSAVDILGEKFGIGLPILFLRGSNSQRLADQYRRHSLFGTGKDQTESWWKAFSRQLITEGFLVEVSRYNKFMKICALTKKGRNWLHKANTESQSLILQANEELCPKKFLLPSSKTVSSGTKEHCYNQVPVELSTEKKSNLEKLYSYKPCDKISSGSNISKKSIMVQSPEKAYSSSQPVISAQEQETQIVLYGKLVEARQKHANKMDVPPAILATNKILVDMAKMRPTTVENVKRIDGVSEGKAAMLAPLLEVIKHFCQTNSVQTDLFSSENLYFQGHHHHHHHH
Text: Example 2: WRN (BV08) ADP-Glo Assay Protocol
Bovine skin gelatin (BSG), dimethyl sulfoxide (DMSO), Pluronic F-127 and Tris(2-carboxyethyl)phosphine hydrochloride solution (TCEP) were purchased from Sigma-Aldrich at the highest level of purity possible. Bicine buffer solution was purchased from Alfa Aesar and compound NSC-617145 was purchased from Tocris. DNA duplex was synthesized at BGI (Shenzhen, China) and was composed of strand 1 with the sequence 5′-[…]-3′ (SEQ ID NO.: 1) and strand 2 with the sequence 5′-[…]-3′ (SEQ ID NO.: 2). DNA strands were annealed by heating to 95° C. for 5 minutes followed by slow cooling to room temperature. Compounds in 100% DMSO (0.1 μl) were spotted into a 384-well white polystyrene Optiplate-384 (Perkin Elmer) assay plate using a LabCyte Echo 550 (Agilent). DMSO (0.1 μl) was added to columns 12, rows A-H and column 24, rows I-P for the maximum signal control. Compound NSC-617145 (0.1 μl) was added to columns 12, rows I-P and 24, rows A-H for the minimum signal control (100% inhibition). Compounds/DMSO were preincubated for 15 minutes at 25° C. with 5 uL 2×WRN (BV08), prepared as described below, in assay buffer containing 20 mM Bicine (pH=7.5), 1 mM MgCl2, 10 mM KCl, 0.1% Pluronic F-127, 0.005% BSG, 1 mM TCEP. The reaction was initiated by the addition of 5 μl 2× substrate mixture in assay buffer and incubated for 60 minutes at 25° C. The final concentrations of the assay components were 0.15 nM WRN, 5 μM ATP, and 0.1 nM DNA duplex. The final DMSO concentration was 1% and the reference compound concentration (NSC-617145) used for the minimal signal control was 20 μM. The reaction was stopped by the addition of the ADP-Glo Kit components (Promega) as directed and the relative luminescence units (RLU) were read on an Envision 2104 (Perkin Elmer).
% Inhibition Calculation:
Where RLU=relative luminescence units, sample=signal in sample well, and MIN and MAX are the respective minimum and maximum signal controls.
Four-Parameter IC50 Fit Equation:
Where top and bottom are normally allowed to float but may be fixed at 100 or 0 respectively in a 3-parameter fit. Y is the % inhibition and X is the compound concentration.
Molecular Biology and virus production. The DNA encoding human Werner helicase (Uniprot Q14191, amino acids 517-1235 with L1074F point mutation) was generated with codon-optimization for E. coli expression and subcloned into the pFastBac vector with a TEV cleavable 8×His tag (WRN-BV08). The baculovirus from the expression plasmid WRN-BV08 was generated from transfection and amplification following the manufacturer's instructions.
Sf9 cells grown in SF900II media were infected with 1:200 WRN-BV08 P2 virus and incubated for protein expression for 72 h at 27° C. The WRN protein was purified using the following protocol. The cell pellets were thawed and resuspended in buffer A (50 mM Tris, pH 7.5, 500 mM NaCl, 1 mM TCEP, 10% Glycerol) supplemented with 0.5% CHAPS, 1 mM [COMPOUND LEFT OUT], 1 μg/mL Leupeptin, 1 μg/mL Pepstatin, and the Pierce Universal Nuclease and cocktail tablet. Cleared lysates were loaded onto a Ni Sepharose™ excel column and washed with buffer A and bound protein was eluted with buffer A supplemented with 300 mM imidazole. The eluted protein was dialyzed against buffer A and digested by His-tagged TEV (1:5 ratio) overnight at 4° C. ZnCl2 was added into the sample at final 15 μM before loading onto a second Ni Sepharose™ excel column. Untagged WRN protein was eluted from the column with buffer A supplemented with 20 mM imidazole, dialyzed overnight into buffer B (50 mM Tris, pH 7.5, 1 mM TCEP, 10% Glycerol) supplemented with 150 mM NaCl and loaded onto a Heparin column. Proteins were eluted with a step gradient of buffer B supplemented with 150 mM, 200 mM, 300 mM and 500 mM NaCl. […]

SMILES | IC50 [µM]
O=C(Cc1ccc(-n2cccc2)cc1)N(Cc1nc(C2CC2)cs1)[C@H]1C=CS(=O)(=O)C1 [I-402, N-[(4-cyclopropyl-1,3-thiazol-2-yl)methyl]-N-[(3S)-1,1-dioxo-2,3-dihydro-1lambda6-thiophen-3-yl]-2-[4-(1H-pyrrol-1-yl)phenyl]acetamide] | > 50
COCCOc1cc(CN(C(=O)Cc2ccc(S(F)(F)(F)(F)F)cc2)C2C=CS(=O)(=O)C2)ccn1 (stereo not shown) [I-719, N-(1,1-dioxo-2,3-dihydro-1lambda6-thiophen-3-yl)-N-{[2-(2-methoxyethoxy)pyridin-4-yl]methyl}-2-[4-(pentafluoro-lambda6-sulfanyl)phenyl]acetamide] | < 0.5
O=C(Cc1ncc(-n2cccc2)s1)N(Cc1ccncc1)C1C=CS(=O)(=O)C1 (stereo not shown) [I-279, N-(1,1-dioxo-2,3-dihydro-1lambda6-thiophen-3-yl)-N-[(pyridin-4-yl)methyl]-2-[5-(1H-pyrrol-1-yl)-1,3-thiazol-2-yl]acetamide] | 5 to 10
COc1cc(CN(C(=O)Cc2ccc(-n3cccc3C)cc2F)C2C=CS(=O)(=O)C2)ccn1 (single isomer, unassigned) [I-329] | 10 to 50
COc1cc(CN(C(=O)Cn2cc(-c3ccc(F)cc3)cn2)C2C=CS(=O)(=O)C2)ccn1 (stereo not shown) [I-68, N-(1,1-dioxo-2,3-dihydro-1lambda6-thiophen-3-yl)-2-[4-(4-fluorophenyl)-1H-pyrazol-1-yl]-N-[(2-methoxypyridin-4-yl)methyl]acetamide] | < 0.5
O=C(Cc1ccc(-n2cccc2)cc1F)N(Cc1ccncc1)C1C=CS(=O)(=O)C1 (single isomer, unassigned) [I-520] | > 50
COC(C(=O)N(Cc1ccccc1)C1C=CS(=O)(=O)C1)c1ccc(-n2cccc2)cc1 (stereo not shown) [I-337, N-benzyl-N-(1,1-dioxo-2,3-dihydro-1lambda6-thiophen-3-yl)-2-methoxy-2-[4-(1H-pyrrol-1-yl)phenyl]acetamide] | 10 to 50
O=C(Cc1cc(-c2ccccc2)n[nH]1)N(Cc1ccncc1)C1C=CS(=O)(=O)C1 (stereo not shown) [I-289, N-(1,1-dioxo-2,3-dihydro-1lambda6-thiophen-3-yl)-2-(3-phenyl-1H-pyrazol-5-yl)-N-[(pyridin-4-yl)methyl]acetamide] | 10 to 50
O=C(Cc1ccc(C2CCCCC2)cc1)N(Cc1ccncc1)C1C=CS(=O)(=O)C1 (stereo not shown) [I-164, 2-(4-cyclohexylphenyl)-N-(1,1-dioxo-2,3-dihydro-1lambda6-thiophen-3-yl)-N-[(pyridin-4-yl)methyl]acetamide] | 0.5 to 5
O=C(Cc1ccc(C(F)(F)F)nc1)N(Cc1ccncc1)C1C=CS(=O)(=O)C1 (stereo not shown) [I-367, N-(1,1-dioxo-2,3-dihydro-1lambda6-thiophen-3-yl)-N-[(pyridin-4-yl)methyl]-2-[6-(trifluoromethyl)pyridin-3-yl]acetamide] | 10 to 50
COc1cc(CN(C(=O)C2Cc3cc(-n4cccc4C)ccc32)C2C=CS(=O)(=O)C2)ccn1 (stereo not shown) [I-132, N-(1,1-dioxo-2,3-dihydro-1lambda6-thiophen-3-yl)-N-[(2-methoxypyridin-4-yl)methyl]-3-(2-methyl-1H-pyrrol-1-yl)bicyclo[4.2.0]octa-1,3,5-triene-7-carboxamide] | 0.5 to 5
C#CCCCC(=O)N1CCN(c2ccc(CN(C(=O)Cc3ccc(-n4cccc4)cc3)C3C=CS(=O)(=O)C3)cc2)CC1 (stereo not shown) [I-238, N-(1,1-dioxo-2,3-dihydro-1lambda6-thiophen-3-yl)-N-({4-[4-(hex-5-ynoyl)piperazin-1-yl]phenyl}methyl)-2-[4-(1H-pyrrol-1-yl)phenyl]acetamide] | 0.5 to 5
O=C(Cn1cc2ccccc2n1)N(Cc1ccncc1)C1C=CS(=O)(=O)C1 (stereo not shown) [I-433, N-(1,1-dioxo-2,3-dihydro-1lambda6-thiophen-3-yl)-2-(2H-indazol-2-yl)-N-[(pyridin-4-yl)methyl]acetamide] | > 50
O=C([C@H]1[C@@H]2CC(F)(F)C[C@@H]21)N(Cc1ccncc1)C1C=CS(=O)(=O)C1 (stereo partly drawn) [I-617, (1R,5S,6R)-N-(1,1-dioxo-2,3-dihydro-1lambda6-thiophen-3-yl)-3,3-difluoro-N-[(pyridin-4-yl)methyl]bicyclo[3.1.0]hexane-6-carboxamide] | > 50
COc1cc(CN(C(=O)C(C(=O)N(C)C)c2ccc(-c3ccc(F)cc3)cc2)C2C=CS(=O)(=O)C2)ccn1 (stereo not shown) [I-55, N-(1,1-dioxo-2,3-dihydro-1lambda6-thiophen-3-yl)-2-{4′-fluoro-[1,1′-biphenyl]-4-yl}-N-[(2-methoxypyridin-4-yl)methyl]-N′,N′-dimethylpropanediamide] | < 0.5

Further lines, results first:

IC50 [µM] | SMILES
< 0.5 | COC(C(=O)N(Cc1nc(C(C)(C)O)cs1)C1C=CS(=O)(=O)C1)c1ccc(-c2ccc(F)c(F)c2)cc1F (single isomer, unassigned) [I-746, (2R*)-N-[(3R**)-1,1-dioxo-2,3-dihydro-1lambda6-thiophen-3-yl]-N-{[4-(2-hydroxypropan-2-yl)-1,3-thiazol-2-yl]methyl}-2-methoxy-2-{3,3′,4′-trifluoro-[1,1′-biphenyl]-4-yl}acetamide]
0.5 to 5 | CN(Cc1ccncc1)C(=O)c1ccc(CN(C(=O)Cc2ccc(-c3ccc(F)c(F)c3)cc2F)C2C=CS(=O)(=O)C2)cc1 (stereo not shown) [I-778, 4-{[N-(1,1-dioxo-2,3-dihydro-1lambda6-thiophen-3-yl)-2-{3,3′,4′-trifluoro-[1,1′-biphenyl]-4-yl}acetamido]methyl}-N-methyl-N-[(pyridin-4-yl)methyl]benzamide]
< 0.5 | CC(C)(O)c1cc(CN(C(=O)Cc2ccc(S(F)(F)(F)(F)F)cc2)C2C=CS(=O)(=O)C2)ccn1 (stereo not shown) [I-39, N-(1,1-dioxo-2,3-dihydro-1lambda6-thiophen-3-yl)-N-{[2-(2-hydroxypropan-2-yl)pyridin-4-yl]methyl}-2-[4-(pentafluoro-lambda6-sulfanyl)phenyl]acetamide]
0.5 to 5 | CN(C)C(=O)c1ccc(CN(C(=O)Cc2ccc(-c3ccc(F)c(F)c3)cc2F)C2C=CS(=O)(=O)C2)cc1 (stereo not shown) [I-779, 4-{[N-(1,1-dioxo-2,3-dihydro-1lambda6-thiophen-3-yl)-2-{3,3′,4′-trifluoro-[1,1′-biphenyl]-4-yl}acetamido]methyl}-N,N-dimethylbenzamide]
> 50 | CC(C)(O)c1cc(CN(C(=O)c2c[nH]c3cc(-c4ccc(F)cc4)ccc23)C2C=CS(=O)(=O)C2)ccn1 (stereo not shown) [I-424, N-(1,1-dioxo-2,3-dihydro-1lambda6-thiophen-3-yl)-6-(4-fluorophenyl)-N-{[2-(2-hydroxypropan-2-yl)pyridin-4-yl]methyl}-1H-indole-3-carboxamide]
< 0.5 | CC(O)(c1cc(CN(C(=O)Cn2cc(-c3cc(F)c(F)c(F)c3)cn2)C2C=CS(=O)(=O)C2)ccn1)C(F)F (stereo not shown) [I-827, N-{[2-(1,1-difluoro-2-hydroxypropan-2-yl)pyridin-4-yl]methyl}-N-(1,1-dioxo-2,3-dihydro-1lambda6-thiophen-3-yl)-2-[4-(3,4,5-trifluorophenyl)-1H-pyrazol-1-yl]acetamide]
< 0.5 | CC(C)(O)c1cc(CN(C(=O)C(OCC(F)F)c2ccc(-c3ccc(F)c(F)c3)cc2F)[C@@H]2C=CS(=O)(=O)C2)ccn1 (single isomer, unassigned) [I-813]

Reference: US20260297070A1, “CYCLIC [COMPOUND LEFT OUT] WRN INHIBITORS” (Nimbus Wadjet, Inc., priority 2023, published 2026)
